Tested on: 997726-040-R-J2-PDC tumor spheroids, viability
Assay: Anticancer human tumor 997726-040-R-J2-PDC patient-derived squamous cell lung carcinoma cell line growth inhibition [PI3K]
Conditions: spheroids with HUVEC and MSC; for IC50: curve of first compound; for viability, T/C: stronger effect = lower value; active = viability on the fitted dose curve at most 10% of control; inactive = the rest
Text: Combinatorial screen of targeted agents with the PI3K inhibitors inavolisib, alpelisib, duvelisib, and copanlisib in multi-cell type tumor spheroids
A high-throughput screen of multi-cell type tumor spheroids was designed to identify active combinations of targeted small molecules and PI3K pathway inhibitors. Complex spheroids include a stromal component modeled by human endothelial cells (HUVEC) and fibroblasts modeled by human mesenchymal stem cells (MSCs). The concentration ranges selected for each drug and investigational agent were based upon clinically achievable concentrations if the clinical Cmax of the agent was known.
Compounds. The drugs and investigational agents: inavolisib (NSC800729), alpelisib (NSC765974), duvelisib (NSC772469), copanlisib (NSC816437), ipatasertib (NSC767898), afuresertib (NSC778305), talazoparib (NSC767125), sapanisertib (NSC764658), selumetinib (NSC741078), tovorafenib (DAY101, NSC766906), vemurafenib (NSC761431), ravoxertinib (NSC781343), sotorasib (NSC818433), MRTX1133 (NSC 836407), abemaciclib (NSC 768073), palbociclib (NSC758247), venetoclax (NSC 766270), SY5609 (NSC837396), enzalutamide (NSC755605), and darolutamide (NSC825331), were obtained from the National Cancer Institute (NCI) Developmental Therapeutics Program Chemical Repository. The FDA-approved anticancer drug set is available from the NCI Developmental Therapeutics Program. […] The stock solutions were prepared in dimethyl sulfoxide (DMSO, Sigma-Aldrich, St. Louis, MO, cat. D2650) at 800-fold the tested concentration and stored at -70 degrees C prior to their use. All drugs and investigational agents were tested over a range starting from a high concentration at or near the clinical Cmax and decreasing in half-log increments. If the clinical Cmax for an agent had not been determined, the highest concentration tested was 10 microM.
Cell Culture. All cells were maintained in an incubator at 37 degrees C and 5% CO2 with 95% humidity. The PDC lines were cultured according to standard operating procedures established by the NCI PDMR (https://pdmr.cancer.gov/sops/default.htm). All PDCs were thawed and cultured in Matrigel-coated flasks prepared with a working solution of 1X Ham's F-12 nutrient mix, without supplementation (Invitrogen, Waltham, MA, cat. 11765054), 100 U/mL penicillin-streptomycin (Invitrogen, cat. 15140122), and 2.5% Matrigel (Corning Inc., Corning, NY, cat. 354248) for the first three passages. The 354836-022-R-J1-PDC, 475296-252-R-J1-PDC, and 997726-040-R-J2-PDC lines were cultured in 6A media, which includes advanced DMEM/F-12 (Thermo Fisher Scientific, cat. 12634028), 10 mM HEPES (Thermo Fisher Scientific, cat. 15630080), 1X GlutaMAX supplement (Thermo Fisher Scientific, cat. 35050061), 0.1 mg/mL primocin (InvivoGen, San Diego, CA, cat. ant-pm-2), 10% defined fetal bovine serum, heat inactivated (HyClone Laboratories Inc., Logan, UT, cat. SH30070.03HI), 50% L-WRN conditioned media (ATCC, cat. CRL-3276), 1.25 mM N-Acetyl-L-cysteine (Sigma-Aldrich, cat. A9165), 10 mM nicotinamide (Sigma-Aldrich, cat. N0636), 1X B-27 supplement (Thermo Fisher Scientific, cat. 17504044), 1X N-2 supplement (Thermo Fisher Scientific, cat. 17502048), and 10 microM Y-27632 dihydrochloride (Tocris Bioscience, Bristol, United Kingdom, cat. 1254). The 624824-186-R-J2-PDC line was cultured in 6C/Colon 1B media, which includes all 6A media components plus 50 ng/mL human EGF recombinant protein (Thermo Fisher Scientific, cat. PHG0311). […]

[1] = second compound 0.0316 µM, first compound 0.000316 µM
[2] = second compound 0.0316 µM, first compound 0.001 µM
[3] = second compound 0.0316 µM, first compound 0.00316 µM
[4] = second compound 0.0316 µM, first compound 0.01 µM
[5] = second compound 0.0316 µM, first compound 0.0316 µM
[6] = second compound 0.0316 µM, first compound 0.1 µM
[7] = second compound 0.1 µM, first compound 0.000316 µM
[8] = second compound 0.1 µM, first compound 0.001 µM
[9] = second compound 0.1 µM, first compound 0.00316 µM
[10] = second compound 0.1 µM, first compound 0.01 µM
[11] = second compound 0.1 µM, first compound 0.0316 µM
[12] = second compound 0.1 µM, first compound 0.1 µM
[13] = second compound 0.316 µM, first compound 0.000316 µM
[14] = second compound 0.316 µM, first compound 0.001 µM
[15] = second compound 0.316 µM, first compound 0.00316 µM
[16] = second compound 0.316 µM, first compound 0.01 µM
[17] = second compound 0.316 µM, first compound 0.0316 µM
[18] = second compound 0.316 µM, first compound 0.1 µM
[19] = second compound 1 µM, first compound 0.000316 µM
[20] = second compound 1 µM, first compound 0.001 µM
[21] = second compound 1 µM, first compound 0.00316 µM
[22] = second compound 1 µM, first compound 0.01 µM
[23] = second compound 1 µM, first compound 0.0316 µM
[24] = second compound 1 µM, first compound 0.1 µM
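Also: spheroids exposed to compounds for seven days before readout.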

Cn1ncnc1[C@H]1c2n[nH]c(=O)c3cc(F)cc(c23)N[C@@H]1c1ccc(F)cc1 + Cc1nc(NC(=O)N2CCCC2C(N)=O)sc1-c1ccnc(C(C)(C)C(F)(F)F)c1
< 0.316 nM: IC50 (second compound 1 µM) | IC50 (second compound 3.16 µM) | IC50 (second compound 10 µM)
> 100 nM: IC50 (second compound 0.0316 µM) | IC50 (second compound 0.1 µM) | IC50 (second compound 0.316 µM)
inactive: viability, T/C [1] 83.8% | viability, T/C [2] 81.5% | viability, T/C [3] 94.3% | viability, T/C [4] 84.9% | viability, T/C [5] 90.7% | viability, T/C [6] 90.4% | viability, T/C [7] 75.5% | viability, T/C [8] 78.6% | viability, T/C [9] 78.5% | viability, T/C [10] 80.2% | viability, T/C [11] 80.8% | viability, T/C [12] 78.2% | viability, T/C [13] 54.5% | viability, T/C [14] 59.4% | viability, T/C [15] 57.2% | viability, T/C [16] 57.2% | viability, T/C [17] 58.4% | viability, T/C [18] 58% | viability, T/C [19] 46.2% | viability, T/C [20] 43.4% | viability, T/C [21] 40.3% | viability, T/C [22] 41.5% | viability, T/C [23] 44.9% | viability, T/C [24] 45.1% | viability, T/C (second compound 3.16 µM, first compound 0.000316 µM) 33% | viability, T/C (second compound 3.16 µM, first compound 0.001 µM) 29.4% | viability, T/C (second compound 3.16 µM, first compound 0.00316 µM) 30% | viability, T/C (second compound 3.16 µM, first compound 0.01 µM) 31.4% | viability, T/C (second compound 3.16 µM, first compound 0.0316 µM) 30.4% | viability, T/C (second compound 3.16 µM, first compound 0.1 µM) 29% | viability, T/C (second compound 10 µM, first compound 0.000316 µM) 17.2% | viability, T/C (second compound 10 µM, first compound 0.001 µM) 18% | viability, T/C (second compound 10 µM, first compound 0.00316 µM) 16.3% | viability, T/C (second compound 10 µM, first compound 0.01 µM) 13.6% | viability, T/C (second compound 10 µM, first compound 0.0316 µM) 18.8% | viability, T/C (second compound 10 µM, first compound 0.1 µM) 12.8%

CC(C)n1nc(-c2ccc3oc(N)nc3c2)c2c(N)ncnc21 + CC(Nc1ccc2c(c1)OCCn1cc(N3C(=O)OCC3C(F)F)nc1-2)C(N)=O
3.27 nM: IC50 (second compound 0.0316 µM)
active: viability, T/C (second compound 0.00316 µM, first compound 0.1 µM) 7.14% | viability, T/C (second compound 0.01 µM, first compound 0.1 µM) 6.85% | viability, T/C [6] 6.47% | viability, T/C [12] 4.52% | viability, T/C [18] 3.29% | viability, T/C [24] 2.78%
inactive: viability, T/C (second compound 0.00316 µM, first compound 0.000316 µM) 79% | viability, T/C (second compound 0.00316 µM, first compound 0.001 µM) 88.2% | viability, T/C (second compound 0.00316 µM, first compound 0.00316 µM) 73.5% | viability, T/C (second compound 0.00316 µM, first compound 0.01 µM) 59.8% | viability, T/C (second compound 0.00316 µM, first compound 0.0316 µM) 38.9% | viability, T/C (second compound 0.01 µM, first compound 0.000316 µM) 74.8% | viability, T/C (second compound 0.01 µM, first compound 0.001 µM) 68.5% | viability, T/C (second compound 0.01 µM, first compound 0.00316 µM) 71.3% | viability, T/C (second compound 0.01 µM, first compound 0.01 µM) 59.1% | viability, T/C (second compound 0.01 µM, first compound 0.0316 µM) 37.4% | viability, T/C [1] 54.6% | viability, T/C [2] 61.3% | viability, T/C [3] 48.7% | viability, T/C [4] 38.6% | viability, T/C [5] 26.6% | viability, T/C [7] 44.2% | viability, T/C [8] 39.5% | viability, T/C [9] 42.5% | viability, T/C [10] 33% | viability, T/C [11] 20.9% | viability, T/C [13] 32.5% | viability, T/C [14] 33.9% | viability, T/C [15] 27.9% | viability, T/C [16] 24.9% | viability, T/C [17] 13.5% | viability, T/C [19] 29.1% | viability, T/C [20] 26.9% | viability, T/C [21] 21.4% | viability, T/C [22] 20.6% | viability, T/C [23] 9.52%
16.5 nM: IC50 (second compound 0.01 µM)
< 0.316 nM: IC50 (second compound 0.1 µM) | IC50 (second compound 0.316 µM) | IC50 (second compound 1 µM)
17.4 nM: IC50 (second compound 0.00316 µM)
